# Experimental data from the supplement of paper PMC4862054.
# System: CAL-148
# Experiment: normalised viability (% of control), CellTiter-Blue; higher = more viable cells (about 100 = DMSO control)
# Settings: 0.3 nM; incubation time: 72 h
# Procedure, shortened: (§1)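 Vehicle (100) and a positive kill control (0) anchored the normalisation of each plate, and Z'-factor was used for quality control. Breast cancer cell lines in 20 µl suspension were incubated 72 h over compound in 5 µl medium in 384-well plates, followed by CellTiter-Blue at 560/590 nm. The value is normalised viability at a single listed concentration of the series.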
row,Structure (SMILES),normalised viability
1,C=CC(=O)N1CCC[C@@H](n2nc(-c3ccc(Oc4ccccc4)cc3)c3c(N)ncnc32)C1,85.8%
2,Cc1cnc(NC(=O)Nc2cc(Br)c(C)cc2OC[C@@H]2CNCCO2)cn1,99.2%

# Same assay, conditions: 3 nM; incubation time: 72 h
row,Structure (SMILES),normalised viability
1,Nc1nc(F)nc2c1ncn2[C@@H]1O[C@H](CO)[C@@H](O)[C@@H]1O [Fludarabine],71%
2,O=C(O)C1(C(=O)O)CCC1.[NH2-].[NH2-].[Pt+2] [Carboplatin],90%
3,N#Cc1ccc(C(c2ccc(C#N)cc2)n2cncn2)cc1 [Letrozole],93.8%
4,C1CN1c1nc(N2CC2)nc(N2CC2)n1 [Triethylenemelamine],101%
5,CCCS(=O)(=O)Nc1ccc(F)c(C(=O)c2c[nH]c3ncc(-c4ccc(Cl)cc4)cc23)c1F [Vemurafenib],95.2%
6,O=C(O)C(=O)O.[NH-][C@@H]1CCCC[C@H]1[NH-].[Pt+2] [Oxaliplatin],93%
7,Cc1ccc(-c2cc(C(F)(F)F)nn2-c2ccc(S(N)(=O)=O)cc2)cc1 [Celecoxib],86.8%
8,NCCCNCCSP(=O)(O)O [Amifostine],97.6%
9,COc1cc2c(Oc3ccc4[nH]c(C)cc4c3F)ncnc2cc1OCCCN1CCCC1 [Cediranib],92.8%
10,C[C@H]1C[C@@H]2[C@H]([C@@H](O)C[C@@]3(C)[C@H]2CC[C@]3(O)C(=O)CO)[C@@]2(C)C=CC(=O)C=C12 [Methylprednisolone],88%
11,CCc1cncnc1N1CCN(Cc2nc3ccc(C(F)(F)F)cc3[nH]2)CC1,119%
12,C=CC(=O)N1CCC[C@@H](n2nc(-c3ccc(Oc4ccccc4)cc3)c3c(N)ncnc32)C1,98.6%
13,Oc1ncc(N(CCCl)CCCl)c(O)n1 [Uracil mustard],85.3%
14,Cc1cnc(NC(=O)Nc2cc(Br)c(C)cc2OC[C@@H]2CNCCO2)cn1,90%
15,CC1=C(/C=C/C(C)=C/C=C/C(C)=C/C(=O)O)C(C)(C)CCC1 [Tretinoin],81.6%

# Same assay, conditions: 10 nM; incubation time: 72 h
row,Structure (SMILES),normalised viability
1,COc1cc2c(Oc3ccc4[nH]c(C)cc4c3F)ncnc2cc1OCCCN1CCCC1 [Cediranib],107%
2,C=CC(=O)N1CCC[C@@H](n2nc(-c3ccc(Oc4ccccc4)cc3)c3c(N)ncnc32)C1,96.3%
3,Cc1cnc(NC(=O)Nc2cc(Br)c(C)cc2OC[C@@H]2CNCCO2)cn1,96.3%

# Same assay, conditions: 30 nM; incubation time: 72 h
row,Structure (SMILES),normalised viability
1,Nc1nc(F)nc2c1ncn2[C@@H]1O[C@H](CO)[C@@H](O)[C@@H]1O [Fludarabine],82.6%
2,O=C(O)C1(C(=O)O)CCC1.[NH2-].[NH2-].[Pt+2] [Carboplatin],96%
3,N#Cc1ccc(C(c2ccc(C#N)cc2)n2cncn2)cc1 [Letrozole],93%
4,C1CN1c1nc(N2CC2)nc(N2CC2)n1 [Triethylenemelamine],105%
5,CCCS(=O)(=O)Nc1ccc(F)c(C(=O)c2c[nH]c3ncc(-c4ccc(Cl)cc4)cc23)c1F [Vemurafenib],97.3%
6,O=C(O)C(=O)O.[NH-][C@@H]1CCCC[C@H]1[NH-].[Pt+2] [Oxaliplatin],106%
7,Cc1ccc(-c2cc(C(F)(F)F)nn2-c2ccc(S(N)(=O)=O)cc2)cc1 [Celecoxib],97%
8,NCCCNCCSP(=O)(O)O [Amifostine],93.9%
9,C[C@H]1C[C@@H]2[C@H]([C@@H](O)C[C@@]3(C)[C@H]2CC[C@]3(O)C(=O)CO)[C@@]2(C)C=CC(=O)C=C12 [Methylprednisolone],99.4%
10,CCc1cncnc1N1CCN(Cc2nc3ccc(C(F)(F)F)cc3[nH]2)CC1,95.8%
11,Oc1ncc(N(CCCl)CCCl)c(O)n1 [Uracil mustard],97.1%
12,CC1=C(/C=C/C(C)=C/C=C/C(C)=C/C(=O)O)C(C)(C)CCC1 [Tretinoin],89.9%

# Same assay, conditions: 100 nM; incubation time: 72 h
row,Structure (SMILES),normalised viability
1,Nc1nc(F)nc2c1ncn2[C@@H]1O[C@H](CO)[C@@H](O)[C@@H]1O [Fludarabine],87.7%
2,O=C(O)C1(C(=O)O)CCC1.[NH2-].[NH2-].[Pt+2] [Carboplatin],95.4%
3,N#Cc1ccc(C(c2ccc(C#N)cc2)n2cncn2)cc1 [Letrozole],94.8%
4,C1CN1c1nc(N2CC2)nc(N2CC2)n1 [Triethylenemelamine],101%
5,CCCS(=O)(=O)Nc1ccc(F)c(C(=O)c2c[nH]c3ncc(-c4ccc(Cl)cc4)cc23)c1F [Vemurafenib],98.3%
6,O=C(O)C(=O)O.[NH-][C@@H]1CCCC[C@H]1[NH-].[Pt+2] [Oxaliplatin],120%
7,Cc1ccc(-c2cc(C(F)(F)F)nn2-c2ccc(S(N)(=O)=O)cc2)cc1 [Celecoxib],91.2%
8,NCCCNCCSP(=O)(O)O [Amifostine],96.5%
9,C[C@H]1C[C@@H]2[C@H]([C@@H](O)C[C@@]3(C)[C@H]2CC[C@]3(O)C(=O)CO)[C@@]2(C)C=CC(=O)C=C12 [Methylprednisolone],102%
10,CCc1cncnc1N1CCN(Cc2nc3ccc(C(F)(F)F)cc3[nH]2)CC1,114%
11,Oc1ncc(N(CCCl)CCCl)c(O)n1 [Uracil mustard],101%
12,CC1=C(/C=C/C(C)=C/C=C/C(C)=C/C(=O)O)C(C)(C)CCC1 [Tretinoin],87.8%

# System: MDA-MB-436
# Experiment: as above
# Settings: 1 nM; incubation time: 72 h
# Procedure, shortened: as §1
row,Structure (SMILES),normalised viability
1,COc1cc2c(Oc3ccc4[nH]c(C)cc4c3F)ncnc2cc1OCCCN1CCCC1 [Cediranib],85.6%
2,C=CC(=O)N1CCC[C@@H](n2nc(-c3ccc(Oc4ccccc4)cc3)c3c(N)ncnc32)C1,106%
3,Cc1cnc(NC(=O)Nc2cc(Br)c(C)cc2OC[C@@H]2CNCCO2)cn1,104%

# Same assay, conditions: 10 nM; incubation time: 72 h
row,Structure (SMILES),normalised viability
1,Nc1nc(F)nc2c1ncn2[C@@H]1O[C@H](CO)[C@@H](O)[C@@H]1O [Fludarabine],89%
2,O=C(O)C1(C(=O)O)CCC1.[NH2-].[NH2-].[Pt+2] [Carboplatin],80.3%
3,N#Cc1ccc(C(c2ccc(C#N)cc2)n2cncn2)cc1 [Letrozole],113%
4,C1CN1c1nc(N2CC2)nc(N2CC2)n1 [Triethylenemelamine],105%
5,CCCS(=O)(=O)Nc1ccc(F)c(C(=O)c2c[nH]c3ncc(-c4ccc(Cl)cc4)cc23)c1F [Vemurafenib],104%
6,O=C(O)C(=O)O.[NH-][C@@H]1CCCC[C@H]1[NH-].[Pt+2] [Oxaliplatin],111%
7,Cc1ccc(-c2cc(C(F)(F)F)nn2-c2ccc(S(N)(=O)=O)cc2)cc1 [Celecoxib],99.3%
8,NCCCNCCSP(=O)(O)O [Amifostine],135%
